Data set [1] concerns the target T1, ATP-dependent translocase ABCB1 (Mus musculus, UniProt P21447). Kind of data set: TP_TRANSPORTER: transepithelial transport (basal to apical) in mdr1a-expressing LLC-PK1 cell. Format: functional, cell-based. The following applies: pig.
Data set [2] concerns the target T2, ATP-dependent translocase ABCB1 (Homo sapiens, UniProt P08183). The data set can be described thus: TP_TRANSPORTER: transepithelial transport (basal to apical) in MDR1-expressing LLC-PK1 cells. Format: functional, cell-based. The following applies: pig.
Data set [3] deals with T2, ATP-dependent translocase ABCB1. The data set can be described thus: TP_TRANSPORTER: cell accumulation in KB-3-1 and KB-V1 cells. Format: functional, cell-based. The following applies: kb-3-1;kb-v1.
The target of data set [4] is T1, ATP-dependent translocase ABCB1. The data set can be described thus: TP_TRANSPORTER: increase in brain concentration in mdr1a(-/-) mouse. Format: functional, organism-based. The following applies: in vivo.
Data set [5] shares this target. The data set can be described thus: TP_TRANSPORTER: increase in plasma concentration in mdr1a(-/-) mouse. Particulars: in vivo. Format: functional, organism-based.
The target is the same in data set [6]. The data set can be described thus: TP_TRANSPORTER: no change in brain concentration in mdr1a(-/-) mouse. Format: functional, organism-based. The following applies: in vivo.
For data set [7] the target is unchanged. The data set can be described thus: TP_TRANSPORTER: no change in plasma concentration in mdr1a(-/-) mouse. Format: functional, organism-based. Particulars: in vivo.

T2 sequence (P08183 whole entry): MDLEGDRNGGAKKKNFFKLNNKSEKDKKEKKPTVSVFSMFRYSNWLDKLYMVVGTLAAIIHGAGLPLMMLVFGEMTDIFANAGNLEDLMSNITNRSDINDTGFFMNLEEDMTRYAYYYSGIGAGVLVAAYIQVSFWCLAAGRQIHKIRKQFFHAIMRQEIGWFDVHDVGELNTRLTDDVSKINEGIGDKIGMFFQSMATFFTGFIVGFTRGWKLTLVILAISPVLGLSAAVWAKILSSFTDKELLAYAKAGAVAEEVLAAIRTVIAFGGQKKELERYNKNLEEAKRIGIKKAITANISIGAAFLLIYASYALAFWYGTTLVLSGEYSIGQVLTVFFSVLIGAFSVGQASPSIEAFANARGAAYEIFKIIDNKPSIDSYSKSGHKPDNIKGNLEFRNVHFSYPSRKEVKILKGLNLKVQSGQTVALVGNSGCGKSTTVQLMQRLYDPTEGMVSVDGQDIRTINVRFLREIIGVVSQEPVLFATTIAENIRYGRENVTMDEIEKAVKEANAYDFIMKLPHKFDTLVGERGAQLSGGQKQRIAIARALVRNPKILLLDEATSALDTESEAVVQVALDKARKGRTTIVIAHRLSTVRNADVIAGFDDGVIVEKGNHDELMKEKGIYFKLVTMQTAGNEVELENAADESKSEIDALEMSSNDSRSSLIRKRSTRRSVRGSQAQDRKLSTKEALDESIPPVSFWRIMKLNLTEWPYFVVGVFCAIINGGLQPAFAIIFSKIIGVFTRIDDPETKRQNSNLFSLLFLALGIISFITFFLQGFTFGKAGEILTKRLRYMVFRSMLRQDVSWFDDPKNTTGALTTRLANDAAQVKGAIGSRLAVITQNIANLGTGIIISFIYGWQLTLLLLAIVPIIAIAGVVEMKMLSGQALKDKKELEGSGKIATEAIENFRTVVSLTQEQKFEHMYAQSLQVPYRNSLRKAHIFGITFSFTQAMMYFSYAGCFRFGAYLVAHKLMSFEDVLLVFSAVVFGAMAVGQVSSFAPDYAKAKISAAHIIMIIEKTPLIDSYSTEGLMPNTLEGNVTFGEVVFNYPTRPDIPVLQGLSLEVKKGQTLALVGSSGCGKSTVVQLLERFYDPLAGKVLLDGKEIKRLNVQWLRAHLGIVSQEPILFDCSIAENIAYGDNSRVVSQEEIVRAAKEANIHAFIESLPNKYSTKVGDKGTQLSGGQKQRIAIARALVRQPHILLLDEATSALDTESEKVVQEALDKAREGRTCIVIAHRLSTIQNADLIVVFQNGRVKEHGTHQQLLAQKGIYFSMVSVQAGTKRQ
T1 sequence (P21447 whole entry): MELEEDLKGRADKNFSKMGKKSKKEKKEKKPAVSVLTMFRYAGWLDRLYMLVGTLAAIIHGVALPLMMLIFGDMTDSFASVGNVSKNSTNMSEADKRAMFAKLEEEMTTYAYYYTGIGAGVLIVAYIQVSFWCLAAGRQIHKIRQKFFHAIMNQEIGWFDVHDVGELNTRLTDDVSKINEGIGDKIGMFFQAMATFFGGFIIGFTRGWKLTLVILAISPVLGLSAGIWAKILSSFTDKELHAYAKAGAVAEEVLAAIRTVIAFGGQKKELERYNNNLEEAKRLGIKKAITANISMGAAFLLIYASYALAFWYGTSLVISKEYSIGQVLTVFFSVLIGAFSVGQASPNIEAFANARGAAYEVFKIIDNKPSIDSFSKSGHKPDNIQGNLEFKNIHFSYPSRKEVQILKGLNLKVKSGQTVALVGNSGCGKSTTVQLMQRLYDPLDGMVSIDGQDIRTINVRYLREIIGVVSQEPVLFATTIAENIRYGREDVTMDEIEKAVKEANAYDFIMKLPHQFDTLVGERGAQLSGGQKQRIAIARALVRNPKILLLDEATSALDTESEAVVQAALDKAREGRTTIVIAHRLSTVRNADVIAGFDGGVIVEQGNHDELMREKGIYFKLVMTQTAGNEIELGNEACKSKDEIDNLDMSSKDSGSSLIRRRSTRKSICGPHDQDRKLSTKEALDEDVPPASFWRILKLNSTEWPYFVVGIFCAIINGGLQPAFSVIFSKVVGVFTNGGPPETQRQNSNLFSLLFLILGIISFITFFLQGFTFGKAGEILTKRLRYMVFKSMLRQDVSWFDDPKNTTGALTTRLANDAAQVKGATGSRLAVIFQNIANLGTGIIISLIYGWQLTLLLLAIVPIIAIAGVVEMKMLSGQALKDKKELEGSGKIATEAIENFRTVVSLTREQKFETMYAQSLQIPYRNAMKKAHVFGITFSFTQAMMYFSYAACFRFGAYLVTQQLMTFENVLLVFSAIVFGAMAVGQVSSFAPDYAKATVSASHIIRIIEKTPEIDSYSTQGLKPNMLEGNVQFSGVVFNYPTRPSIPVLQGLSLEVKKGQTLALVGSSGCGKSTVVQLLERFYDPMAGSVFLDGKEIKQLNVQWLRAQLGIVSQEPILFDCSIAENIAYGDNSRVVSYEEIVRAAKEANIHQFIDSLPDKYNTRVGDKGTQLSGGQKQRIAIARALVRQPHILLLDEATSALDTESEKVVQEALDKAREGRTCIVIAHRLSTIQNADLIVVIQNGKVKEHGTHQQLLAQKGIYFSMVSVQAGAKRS

Regarding `Cc1nc(N)ccc1CNC(=O)Cn1c(C)cnc(NCCc2ccccc2)c1=O.Cl.Cl.O`, the Activity entry in data set [1], in data set [2] and in data set [3] was “substrate [+]” in each case.
As for `C[C@H](N)c1ccc(N2CCC(c3nc(-c4cccc(C(F)(F)F)c4)c(-c4ccncc4)n3C)CC2)cc1.[O-][Cl+3]([O-])([O-])O`, the Activity result in data set [4], in data set [1], in data set [5], in data set [2] and in data set [3] was “substrate [+]” throughout.
For `CC(C)(C)NC(=O)[C@@H]1CN(Cc2cc3ccccc3o2)CCN1[C@@H](Cc1ccccc1)[C@@H](O)C[C@@H](Cc1ccccc1)C(=O)NC1c2ccccc2C[C@H]1O` (some centres undefined), the Activity result in data set [4], in data set [1], in data set [5] and in data set [3] was “substrate [+]” in each case.
For `Cc1cccc(NC(=O)NC2N=C(c3ccccc3)c3ccccc3N(C)C2=O)c1` (centres undefined), the Activity result in data set [4], in data set [1], in data set [5], in data set [2] and in data set [3] was “substrate [+]” in each case.
In the case of `C[C@@H](O)[C@H]1C(=O)N2C(C(=O)[O-])=C(S[C@@H]3CN[C@H](C(=O)Nc4cccc(C(=O)O)c4)C3)[C@H](C)[C@H]12.O.[Na+]`, the Activity entry in data set [1], in data set [2] and in data set [3] was “is not a substrate [-]” each time.
Turning to `CC(C)(C)NC(=O)[C@@H]1CN(Cc2cccnc2)CCN1C[C@@H](O)C[C@@H](Cc1ccccc1)C(=O)N[C@H]1c2ccccc2C[C@H]1O.O`, the Activity entry in data set [4], in data set [1], in data set [5] and in data set [3] was “substrate [+]” each time.
Consider `CN1C(=O)C(NC(=O)c2cc3ccccc3[nH]2)N=C(c2ccccc2)c2ccccc21` (racemic), for which the Activity result in data set [1], in data set [2] and in data set [3] was “is not a substrate [-]” each time.
Consider `CC[C@H](C)C[C@H](C)CCCCCCCCC(=O)N[C@H]1C[C@@H](O)[C@@H](NCCN)NC(=O)[C@@H]2[C@@H](O)CCN2C(=O)[C@H]([C@H](O)CCN)NC(=O)[C@H]([C@H](O)[C@@H](O)c2ccc(O)cc2)NC(=O)[C@@H]2C[C@@H](O)CN2C(=O)[C@H]([C@@H](C)O)NC1=O` [CASPOFUNGIN], for which the Activity entry in data set [1], in data set [2] and in data set [3] was “is not a substrate [-]” throughout.
For `CN1C(=O)CN=C(c2ccccc2)c2cc(Cl)ccc21` [DIAZEPAM], the Activity entry in data set [6], in data set [1], in data set [2], in data set [3] and in data set [7] was “is not a substrate [-]” each time.
`N#Cc1ccc(Cn2cncc2CN2CCN(c3cccc(Cl)c3)C(=O)C2)cc1` [L-778123 FREE BASE]: the Activity result in data set [1], in data set [2] and in data set [3] was “substrate [+]” throughout.
Take `CC(=O)[C@H]1CC[C@H]2[C@@H]3CCC4=CC(=O)CC[C@]4(C)[C@H]3CC[C@]12C` [PROGESTERONE]: the Activity entry in data set [1] was “is not a substrate [-]”; in data set [2] it was “substrate [+]”; in data set [3], “is not a substrate [-]”.
`CC[C@]1(O)C[C@@H]2CN(CCc3c([nH]c4ccccc34)[C@@](C(=O)OC)(c3cc4c(cc3OC)N(C)[C@H]3[C@@](O)(C(=O)OC)[C@H](OC(C)=O)[C@]5(CC)C=CCN6CC[C@]43[C@@H]65)C2)C1` [VINBLASTINE]: the Activity entry in data set [4], in data set [5] and in data set [3] was “substrate [+]” each time.

The values are drawn from ChEMBL document CHEMBL2073937, “In vitro substrate identification studies for p-glycoprotein-mediated transport: species difference and predictability of in vivo results” (J Pharmacol Exp Ther, 2001).
